Common to all, as to assay: inhibition of tumour cell growth, NCI panel, 48 h
Experiment [1] deals with MALME-3M melanoma.
The test system of experiment [2] is SF-539 CNS.
Experiment [3] has as its system HL-60(TB) leukemia.
The test system of experiment [4] is A498 renal.
Experiment [5] relates to NCI-H23 lung.
Experiment [6] has as its system MOLT-4 leukemia.
The test system of experiment [7] is HOP-92 NSCLC.
Experiment [8] has as its system SR leukemia.
Experiment [9] relates to SK-MEL-28 melanoma.
The test system of experiment [10] is MDA-MB-231 breast.

SMILES strings stand for the structures.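 Following 48 hours of exposure in 96-well plates, responses at five concentrations were used to interpolate endpoints linearly. GI50 is the concentration that inhibits growth by half. Definition used: TGI = concentration required for complete inhibition of growth.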 Bounds are passed on as bounds.

Take `O=C(/C(=C\c1ccc(Cl)cc1)c1ccccc1)c1ccccc1`: the TGI in experiment [1] was more than 100 µM; in [2] it was more than 100 µM; in experiment [3], 36.3 µM; in experiment [4], more than 100 µM; in experiment [5] it was more than 100 µM; in [6], more than 100 µM. The TGI in [7], in [8] and in [9] was more than 100 µM in each case.
For the molecule `O=C(COC(=O)c1cccc2c(=O)c3ccccc3[nH]c12)Nc1ccc(C(=O)O)cc1`, the TGI in experiment [1], in experiment [2], in experiment [3], in experiment [4], in experiment [5] and in [6] was more than 100 µM throughout. Also, the TGI in experiment [7], in experiment [8] and in [9] was more than 100 µM each time.
With `CC(C)(C)c1c2c(c(C(C)(C)C)c3c1OCN(Cc1ccccc1)C3)OCN(Cc1ccccc1)C2`, the TGI in experiment [1] was determined as 43.1 µM; in [2], 31 µM; in experiment [4] it was 20.6 µM; in experiment [5] it was 27.4 µM; in experiment [6] it was 50.4 µM; in experiment [7] it was 28.1 µM. For the same molecule, the TGI was 29.3 µM in experiment [10], 53.2 µM in experiment [8] and more than 100 µM in [9].
Consider `CC(=O)c1cc(C(=O)c2ccc3c(c2)Sc2ccccc2N3)c2cc(C)ccn12`, for which the GI50 in experiment [1] was 0.0429 µM; in [2], 0.0581 µM; in [4], 0.0431 µM; in experiment [5], 0.237 µM; in [6] it was 0.329 µM; in experiment [7], more than 100 µM. In addition, the GI50 in [10] was 0.348 µM; in [8], 0.0386 µM; in experiment [9], 6.79 µM. The TGI in [1] is more than 100 µM; in experiment [2], 0.826 µM; in [4], more than 100 µM; in [5], more than 100 µM; in [6], more than 100 µM; in experiment [7] it was more than 100 µM. Further, the TGI in experiment [10], in experiment [8] and in [9] was more than 100 µM each time.
Take `O=C(c1ccco1)c1c(C(F)(F)F)n([O-])c2ccc(Cl)cc2[n+]1=O`: the GI50 in experiment [1] was 5.86 µM; in [2], 0.37 µM; in experiment [3], 0.346 µM; in [4], 1.46 µM; in experiment [5], 0.82 µM; in experiment [6], 0.0335 µM. Moreover, the GI50 in experiment [10] was 0.376 µM; in experiment [8], 0.204 µM; in experiment [9], 2.04 µM. In addition, the TGI in experiment [1] amounted to 21.3 µM; in experiment [2] it was 0.924 µM; in experiment [3] it was 6.33 µM; in experiment [4] it was 2.99 µM; in [5], 2.55 µM; in experiment [6], 0.539 µM. The results for the TGI in experiment [10], in experiment [8] and in [9] were 1.41 µM, 0.574 µM and 5.71 µM, respectively.
Turning to `Clc1ccc(-c2c(C3=NCCCN3)nnn2-c2ccccc2)cc1`, the TGI in experiment [1] is more than 100 µM; in experiment [2], more than 100 µM; in experiment [3], 36.6 µM; in experiment [4], more than 100 µM; in experiment [5], more than 100 µM; in [6], more than 100 µM. The TGI in experiment [7], in experiment [8] and in [9] was more than 100 µM each time.
`NCC1OC(OC2C(CO)OC(OC3C(O)C(N)CC(N)C3OC3OC(CO)C(O)CC3N)C2O)C(N)C(O)C1OC1OC(CO)C(O)C(O)C1O` (stereo unspecified): the GI50 in experiment [2] is more than 50 µg/mL; in experiment [3] it was more than 50 µg/mL; in experiment [4], more than 50 µg/mL; in [5], more than 50 µg/mL; in [6], more than 50 µg/mL; in [7], 14.7 µg/mL. Further, the GI50 in experiment [10], in [8] and in [9] was more than 50 µg/mL each time. Moreover, the TGI in [2], in [3], in experiment [4], in [5], in experiment [6] and in experiment [7] was more than 50 µg/mL each time. Besides, the TGI in experiment [10], in [8] and in experiment [9] was more than 50 µg/mL throughout.
Turning to `Cc1cc(C(C)(C)C)cc(CNC2CCCCC2)c1O`, the TGI came out at 27.8 µM in [1]; 33 µM in experiment [2]; 30.3 µM in experiment [4]; 29.2 µM in experiment [5]; 92.4 µM in [6]; 29.3 µM in experiment [7]. In addition, the TGI in experiment [10] was determined as 32.9 µM; in experiment [8] it was 53.6 µM; in [9], 30.9 µM.
As to `OCCN1CCN2C=C(C3CCCC4N(CCO)CCN34)CCC21` (stereo unspecified), the TGI in experiment [1] was more than 100 µM; in experiment [2], more than 92.2 µM; in experiment [3] it was 24 µM; in experiment [4] it was more than 100 µM; in experiment [5], more than 100 µM; in experiment [6], 53.6 µM. For the same molecule, the figures for the TGI in experiment [7], in experiment [8] and in experiment [9] were more than 100 µM, 26.3 µM and more than 100 µM, respectively.
For `O=C1c2cc([N+](=O)[O-])ccc2-c2ccc3c4ccc5c6c(ccc(c7ccc1c2c73)c64)C(=O)c1cc([N+](=O)[O-])ccc1-5`, the TGI in experiment [1], in [3], in experiment [4], in [5], in [6] and in [7] was more than 100 µM in each case. Besides, the TGI in experiment [10], in [8] and in [9] was more than 100 µM throughout.
In the case of `NNC(=O)N/N=C1\C(=O)N(c2ccc(Cl)c(Cl)c2)C(=O)C(=O)C1c1nc2ccccc2s1` (stereo unspecified), the TGI in experiment [1], in experiment [2], in experiment [3], in [4], in experiment [5] and in experiment [6] was more than 100 µM throughout. Further, the TGI in [7], in experiment [8] and in experiment [9] was more than 100 µM in each case.

Values taken from PubChem BioAssay (NCI).
